Measured values: US20170305936A1, “SOLID STATE FORMS OF CRISABOROLE” (Pliva Hrvatska d.o.o., priority 2016, published 2017)

How the values were obtained:
Type in all cases: physicochemical
[1] = Hygroscopicity (water absorption, European Pharmacopoeia 7.0, chapter 01/2008:51100); conditions: non-hygroscopic = less than 0.2% (w/w) water absorption after 24 h exposure to 25° C./80% RH
Procedure: As used herein the term non-hygroscopic in relation to crystalline Crisaborole refers to less than 0.2% (w/w) of water absorption after 24 h exposure to 25° C./80% RH, determined according to European Pharmacopoeia 7.0, chapter 01/2008:51100. Water can be for example atmospheric water.

[2] = Thermodynamic (polymorphic) stability on storage, re-analysis by PXRD; conditions: for thermodynamic stability (conversion to any other solid state form, by XRPD): up to 50° C./80% RH
Procedure: Thermodynamic stability in relation to crystalline Crisaborole form I refers to less than 20%, 10%, 5%, 2%, 1%, or 0.5% conversion of crystalline Crisaborole form Ito any other solid state form of Crisaborole after exposure of form Ito conditions of up to 50° C./80% RH, e.g. 2-8° C., 25° C./60% RH, 40° C./75% RH for at least 1 month, as measured by XRPD. In some embodiments, the conversion is 1%-20%, 1%-10% or 1%-5%. […] Thermodynamic stability in relation to crystalline Crisaborole form II refers to less than 20%, 10%, 5%, 2%, 1%, or 0.5% conversion of crystalline Crisaborole form II to any other solid state form of Crisaborole after exposure of form II to conditions of up to 50° C./80% RH, e.g. 25° C./60% RH, 40° C./75% RH for at least 2 months, as measured by XRPD. In some embodiments, the conversion is 1%-20%, 1%-10% or 1%-5%. Sample after being powdered in a mortar and pestle is applied directly on a silicon plate holder. The X-ray powder diffraction pattern was measured with Philips X'Pert PRO X-ray powder diffractometer, equipped with Cu irradiation source=1.54184 Å (Angstrom), X'Celerator (2.022° 2θ) detector. Scanning parameters: angle range: 3-40 deg., step size 0.0167, time per step 37 s, continuous scan. Samples of Crisaborole form I were stored for 2 weeks at 25° C. 2-8° C., and for 1 month at different stress conditions: 25° C./60% RH, 40° C./75% RH, 50° C. and 50° C./80% RH.

Solubility in solvents = experiment: Solubility in solvents
[3] = Chemical stability on storage (impurity profile, HPLC)
Procedure: HPLC analysis was performed on instrument Agilent 1290, with experimental conditions being set as follows: Samples of Crisaborole form I were stored for 2 weeks at 25° C. 2-8° C., and for 1 month at different stress conditions: 25° C./60% RH, 40° C./75% RH, 50° C. and 50° C./80% RH.

[4] = Mechanical stability (stress, re-analysis by PXRD)
Procedure: Sample after being powdered in a mortar and pestle is applied directly on a silicon plate holder. The X-ray powder diffraction pattern was measured with Philips X'Pert PRO X-ray powder diffractometer, equipped with Cu irradiation source=1.54184 Å (Angstrom), X'Celerator (2.022° 2θ) detector. Scanning parameters: angle range: 3-40 deg., step size 0.0167, time per step 37 s, continuous scan.

[5] = Stability at high humidity levels
Procedure: Moreover, Form I is stable at high humidity levels (e.g. room temperature at 100% RH for 5-7 days), including after milling procedure (e.g. feeding pressure: 6.5 bar; grinding pressure: 6 bar; rotation speed: 300 rpm).

N#Cc1ccc(Oc2ccc3c(c2)COB3O)cc1 [Crisaborole form I, 5-(4-Cyanophenoxy)-1,3-dihydro-1-hydroxy-2,1-benzoxaborole]
hygroscopicity [1]: non-hygroscopic
PXRD after storage ([2]; 1 month at 25° C./60% RH): unchanged
PXRD after storage ([2]; 1 month at 40° C./75% RH): unchanged
PXRD after storage ([2]; 1 month at 50° C.): unchanged
PXRD after storage ([2]; 1 month at 50° C./80% RH): unchanged
PXRD after storage ([2]; 2 weeks at 2-8° C.): unchanged
PXRD after storage ([2]; 2 weeks at 25° C.): unchanged
thermodynamic stability (conversion to any other solid state form, by XRPD) ([2]; e.g. 2-8° C., 25° C./60% RH, 40° C./75% RH for at least 1 month): good thermodynamic stability
thermodynamic stability (conversion to any other solid state form, by XRPD) ([2]; e.g. 2-8° C., 25° C./60% RH, 40° C./75% RH for at least 1 month, listed as Crystalline form I of Crisaborole): thermodynamically stable
solubility in N,N-dimethylformamide (Solubility in solvents; N,N-dimethylformamide): very soluble
solubility in ethanol (Solubility in solvents; ethanol): freely soluble
solubility in isopropanol (Solubility in solvents; isopropanol): freely soluble
solubility in propylene glycol (Solubility in solvents; propylene glycol): freely soluble
chemical stability [3]: chemically stable
impurity profile after storage ([3]; 1 month at 25° C./60% RH): no change in impurity profile
impurity profile after storage ([3]; 1 month at 40° C./75% RH): no change in impurity profile
impurity profile after storage ([3]; 1 month at 50° C.): no change in impurity profile
impurity profile after storage ([3]; 1 month at 50° C./80% RH): no change in impurity profile
impurity profile after storage ([3]; 2 weeks at 2-8° C.): no change in impurity profile
impurity profile after storage ([3]; 2 weeks at 25° C.): no change in impurity profile
mechanical stability, PXRD after stress ([4]; pressure of 9 tons on 132.67 mm^2 for 2 min): unchanged
mechanical stability, PXRD after stress ([4]; pressure of 9 tons on 132.67 mm^2 for 2 min, listed as Form I): resistant to mechanical stress
mechanical stability, PXRD after stress ([4]; strong grinding using mortar and pestle for 2 min): unchanged
mechanical stability, PXRD after stress ([4]; strong grinding using mortar and pestle for 2 min, listed as Form I): resistant to mechanical stress
mechanical stability, PXRD after stress ([4]; strong grinding with a drop of solvent (e.g. H2O, EtOH) using mortar and pestle for 2 min): unchanged
mechanical stability, PXRD after stress ([4]; strong grinding with a drop of solvent (e.g. H2O, EtOH) using mortar and pestle for 2 min, listed as Form I): resistant to mechanical stress
stability at high humidity levels after milling procedure ([5]; after milling (feeding pressure 6.5 bar; grinding pressure 6 bar; rotation speed 300 rpm)): stable
stability at high humidity levels ([5]; room temperature at 100% RH for 5-7 days): stable

N#Cc1ccc(Oc2ccc3c(c2)COB3O)cc1 [Crisaborole form II, 5-(4-Cyanophenoxy)-1,3-dihydro-1-hydroxy-2,1-benzoxaborole]
thermodynamic stability (conversion to any other solid state form, by XRPD) ([2]; e.g. 25° C./60% RH, 40° C./75% RH for at least 2 months): good thermodynamic stability
thermodynamic stability (conversion to any other solid state form, by XRPD) ([2]; e.g. 25° C./60% RH, 40° C./75% RH for at least 2 months, listed as Crystalline form II of Crisaborole): thermodynamically stable
stability to polymorphic conversions under high humidity ([5]; high humidity): stable
